Assay results taken from the NIST ThermoML archive (doi:10.1021/acs.jced.5b00613).

Test: xn = mol fraction of the nth substance listed
Conditions: Liquid, Vibrating tube method

CCCCCCCCCC [decane] + CCCCCC
mass density [kg/m3]
Conditions | 100 kPa | 1000 kPa | 5000 kPa | 10000 kPa | 20000 kPa | 30000 kPa | 40000 kPa | 50000 kPa | 60000 kPa
278.15 K, x2 = 0.1992 | 732.4 | 733 | 735.8 | 739.2 | 745.6 | 751.5 | 756.9 | 761.9 | 767
278.15 K, x2 = 0.3968 | 721.4 | 722.1 | 725.1 | 728.7 | 735.1 | 741.4 | 747 | 752.2 | 757.4
278.15 K, x2 = 0.4978 | 715.4 | 716 | 719.2 | 722.8 | 729.5 | 735.7 | 741.4 | 746.8 | 752
278.15 K, x2 = 0.5957 | 708.5 | 709.1 | 712.3 | 716 | 722.8 | 729.3 | 735.1 | 740.6 | 745.8
278.15 K, x2 = 0.7978 | 692.6 | 693.3 | 696.8 | 700.6 | 707.9 | 714.7 | 720.8 | 726.4 | 731.9
298.15 K, x2 = 0.1992 | 716.8 | 717.5 | 720.7 | 724.6 | 731.7 | 738.1 | – | – | –
298.15 K, x2 = 0.3968 | 705.6 | 706.3 | 709.7 | 713.8 | 721 | 727.9 | – | – | –
298.15 K, x2 = 0.4978 | 699.1 | 699.6 | 703.1 | 707.3 | 714.8 | – | – | – | –
298.15 K, x2 = 0.5957 | 692.1 | 692.7 | 696.2 | 700.5 | 708.2 | – | – | – | –
298.15 K, x2 = 0.7978 | 675.5 | 676.3 | 680.3 | 684.8 | 693 | – | – | – | –
